Data taken from PubChem BioAssay AID588387 (NMMLSC, 2011).
Activity calls are given as the source filed them.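 The calls were made as follows: active = half-maximal binding-loss concentration at or below 10 µM, response change across doses of 30% or more, acceptable curve fit; inactive = the rest.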

Molecular target: GTPase HRas (Homo sapiens) (UniProt P01112)
Assay: activated H-Ras mutant GTP-binding inhibitors, SAR follow-up, biochemical, multiplex bead flow cytometry, round 1 (AID 588387)
Conditions: GST-H-Ras beads, Bodipy-FL-GTP binding; for % response (remaining GTP binding): at 100 µM (top of the series)

Sequence of GTPase HRas (Homo sapiens) (P01112 whole entry, looked up): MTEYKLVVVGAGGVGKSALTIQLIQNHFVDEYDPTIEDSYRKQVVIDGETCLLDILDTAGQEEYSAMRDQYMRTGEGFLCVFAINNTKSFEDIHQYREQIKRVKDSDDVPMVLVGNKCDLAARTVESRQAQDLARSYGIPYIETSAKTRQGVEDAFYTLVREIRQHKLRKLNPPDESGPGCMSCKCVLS

| EC50 | % response (remaining GTP binding) | SMILES |
| --- | --- | --- |
| 47 nM |  | CC1Cc2c(sc(NC(=S)NC(=O)c3ccccc3)c2C(=O)O)CO1 (configuration not stated) |
|  | inactive | CC1(C)Cc2c(sc(NC(=S)NC(=O)c3cccc(Br)c3)c2C(=O)O)CO1 |
|  | inactive | CCOC(=O)c1c(NC(=O)NC(C)(C)C)sc2c1CCN(C)C2 |
|  | inactive | CCOC(=O)c1c(NC(=O)Nc2ccc(F)cc2)sc2c1CCN(C)C2 |
|  | inactive | CCOC(=O)c1c(NC(=O)Nc2ccc(C)cc2)sc2c1CCN(C)C2 |
|  | inactive | COC(=O)c1c(N)sc2c1CC(C)(C)OC2 |
| 278 nM |  | CC1(C)Cc2c(sc(NC(=S)NC(=O)c3cccc(F)c3)c2C(=O)O)CO1 |
| 45 nM |  | CC1(C)Cc2c(sc(NC(=S)NC(=O)c3ccccc3Br)c2C(=O)O)CO1 |
|  | inactive | CN1CCc2c(sc(NC(=O)Nc3ccc(F)cc3)c2C(=O)O)C1 |
| 145 nM |  | COc1ccc(C(=O)NC(=S)Nc2sc3c(c2C(=O)O)CC(C)(C)OC3)cc1 |
|  | inactive | CCOC(=O)c1c(NC(=S)Nc2ccccc2)sc2c1CC(C)(C)OC2 |
| 32 nM |  | O=C(NC(=S)Nc1sc2c(c1C(=O)O)CCOC2)c1ccccc1 |
|  | inactive | CC1(C)Cc2c(sc(NC(=O)Cc3ccccc3)c2C(=O)O)CO1 |
|  | inactive | CCOC(=O)c1c(N)sc2ccccc12 |
| 33 nM |  | COc1cccc(C(=O)NC(=S)Nc2sc3c(c2C(=O)O)CC(C)(C)OC3)c1 |
|  | inactive | Cc1ccc(Nc2nc3sc4c(c3c(=O)o2)CCN(C)C4)cc1 |
|  | inactive | CC(C)(C)OC(=O)c1c(NC(=S)NC(=O)c2ccccc2)sc2c1CCOC2 |
| 76 nM |  | CC1(C)CCc2sc(NC(=S)NC(=O)c3ccccc3)c(C(=O)O)c2C1 |
|  | inactive | Cc1ccc(NC(=O)Nc2sc3c(c2C(=O)O)CCN(C)C3)cc1 |
| 82 nM |  | CC1(C)Cc2c(sc(NC(=S)NC(=O)c3ccccc3)c2C(=O)O)CO1 |
| 51 nM |  | CC1(C)Cc2c(sc(NC(=S)NC(=O)c3ccccc3F)c2C(=O)O)CO1 |
|  | inactive | CN1CCc2c(sc3nc(Nc4ccc(F)cc4)oc(=O)c23)C1 |
|  | inactive | CC1(C)Cc2c(sc(NC(=S)Nc3ccccc3)c2C(=O)O)CO1 |
| 260 nM |  | CC1(C)Cc2c(sc(NC(=S)NC(=O)c3ccc(Br)cc3)c2C(=O)O)CO1 |
| 151 nM |  | CC1(C)Cc2c(sc(NC(=O)NC(=O)c3ccccc3)c2C(=O)O)CO1 |
|  | inactive | COC(=O)c1c(NC(=S)NC(=O)c2ccccc2)sc2c1CC(C)(C)OC2 |
|  | inactive | CCOC(=O)c1c(NC(=S)NC(=O)c2ccccc2)sc2ccccc12 |
